Data: US7074789B2, “Kinase inhibitors” (Amgen Inc., priority 1999, dated 2006)

What was measured:
Assay type in all cases: biochemical
Lyn = biological target: T1, Lyn (Homo sapiens, UniProt P07948); assay: Kinase inhibition assay (33P transfer), Lyn; settings: Table 6, Lyn-1 kinase inhibition class
T1 construct: Kinases are expressed as either kinase domains or full length constructs; made in house
Outline: (§1)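 Read-out: scintillation counts of 33P moved from ATP onto synthetic peptide polymer coated on the well surface, after washing with 0.5% phosphoric acid. Enzymes were tagged (GST or polyHistidine) and came from bacterial or insect-cell expression. IC50 marks 50% loss of incorporated label.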

Src = biological target: T2, Src (Homo sapiens, UniProt P12931); assay: Kinase inhibition assay (33P transfer), Src; settings: Table 6, Src-1 kinase inhibition class
T2 construct: Kinases are expressed as either kinase domains or full length constructs; made in house
Outline: as §1

Fyn = biological target: T3, Fyn (Homo sapiens, UniProt P06241); assay: Kinase inhibition assay (33P transfer), Fyn; settings: read-out: Fyn-1
T3 construct: Kinases are expressed as either kinase domains or full length constructs; made in house
Outline: as §1

Flt-1 = biological target: T4, Flt-1 (Homo sapiens, UniProt P17948); assay: Kinase inhibition assay (33P transfer), Flt-1
T4 construct: Kinases are expressed as either kinase domains or full length constructs; made in house
Outline: as §1

EPHB4 = biological target: T5, EPHB4 (Homo sapiens, UniProt P54760); assay: Kinase inhibition assay (33P transfer), EPHB4; settings: read-out: EPHB4-1
T5 construct: Kinases are expressed as either kinase domains or full length constructs; made in house
T5 sequence (P54760 16-987): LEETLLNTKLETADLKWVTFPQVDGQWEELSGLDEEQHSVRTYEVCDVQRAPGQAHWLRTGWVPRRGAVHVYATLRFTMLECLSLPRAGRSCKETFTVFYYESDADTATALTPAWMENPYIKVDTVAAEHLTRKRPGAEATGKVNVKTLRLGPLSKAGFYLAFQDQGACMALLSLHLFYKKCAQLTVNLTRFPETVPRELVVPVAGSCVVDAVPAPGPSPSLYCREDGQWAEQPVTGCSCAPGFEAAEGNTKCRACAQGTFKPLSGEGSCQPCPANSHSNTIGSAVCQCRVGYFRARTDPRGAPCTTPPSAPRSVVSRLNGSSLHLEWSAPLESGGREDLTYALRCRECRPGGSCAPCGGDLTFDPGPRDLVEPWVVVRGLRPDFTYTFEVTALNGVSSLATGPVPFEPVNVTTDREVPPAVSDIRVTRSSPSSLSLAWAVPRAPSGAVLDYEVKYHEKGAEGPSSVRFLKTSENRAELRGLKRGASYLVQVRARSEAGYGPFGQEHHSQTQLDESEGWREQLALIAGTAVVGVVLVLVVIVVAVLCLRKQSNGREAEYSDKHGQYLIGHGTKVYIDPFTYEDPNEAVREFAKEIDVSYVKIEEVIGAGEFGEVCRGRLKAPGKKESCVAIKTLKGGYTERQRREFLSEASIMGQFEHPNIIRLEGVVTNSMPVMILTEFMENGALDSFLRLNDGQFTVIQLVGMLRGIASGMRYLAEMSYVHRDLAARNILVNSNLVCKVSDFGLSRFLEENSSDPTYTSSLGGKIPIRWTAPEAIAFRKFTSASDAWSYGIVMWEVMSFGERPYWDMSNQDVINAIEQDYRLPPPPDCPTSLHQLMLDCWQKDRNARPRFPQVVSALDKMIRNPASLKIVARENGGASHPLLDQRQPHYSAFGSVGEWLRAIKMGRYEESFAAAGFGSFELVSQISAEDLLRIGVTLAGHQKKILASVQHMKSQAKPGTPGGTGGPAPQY

Hck-1 = biological target: T6, Hck-1 (Homo sapiens, UniProt P08631); assay: Kinase inhibition assay (33P transfer), Hck; settings: Table 6, Hck-1 kinase inhibition class
T6 construct: Kinases are expressed as either kinase domains or full length constructs; made in house

ErbB4 = biological target: T7, ErbB4 (Homo sapiens, UniProt Q15303); assay: Kinase inhibition assay (33P transfer), ErbB4; settings: read-out: ErbB4-1
T7 construct: Kinases are expressed as either kinase domains or full length constructs; made in house
T7 sequence (Q15303 26-1308, species assumed): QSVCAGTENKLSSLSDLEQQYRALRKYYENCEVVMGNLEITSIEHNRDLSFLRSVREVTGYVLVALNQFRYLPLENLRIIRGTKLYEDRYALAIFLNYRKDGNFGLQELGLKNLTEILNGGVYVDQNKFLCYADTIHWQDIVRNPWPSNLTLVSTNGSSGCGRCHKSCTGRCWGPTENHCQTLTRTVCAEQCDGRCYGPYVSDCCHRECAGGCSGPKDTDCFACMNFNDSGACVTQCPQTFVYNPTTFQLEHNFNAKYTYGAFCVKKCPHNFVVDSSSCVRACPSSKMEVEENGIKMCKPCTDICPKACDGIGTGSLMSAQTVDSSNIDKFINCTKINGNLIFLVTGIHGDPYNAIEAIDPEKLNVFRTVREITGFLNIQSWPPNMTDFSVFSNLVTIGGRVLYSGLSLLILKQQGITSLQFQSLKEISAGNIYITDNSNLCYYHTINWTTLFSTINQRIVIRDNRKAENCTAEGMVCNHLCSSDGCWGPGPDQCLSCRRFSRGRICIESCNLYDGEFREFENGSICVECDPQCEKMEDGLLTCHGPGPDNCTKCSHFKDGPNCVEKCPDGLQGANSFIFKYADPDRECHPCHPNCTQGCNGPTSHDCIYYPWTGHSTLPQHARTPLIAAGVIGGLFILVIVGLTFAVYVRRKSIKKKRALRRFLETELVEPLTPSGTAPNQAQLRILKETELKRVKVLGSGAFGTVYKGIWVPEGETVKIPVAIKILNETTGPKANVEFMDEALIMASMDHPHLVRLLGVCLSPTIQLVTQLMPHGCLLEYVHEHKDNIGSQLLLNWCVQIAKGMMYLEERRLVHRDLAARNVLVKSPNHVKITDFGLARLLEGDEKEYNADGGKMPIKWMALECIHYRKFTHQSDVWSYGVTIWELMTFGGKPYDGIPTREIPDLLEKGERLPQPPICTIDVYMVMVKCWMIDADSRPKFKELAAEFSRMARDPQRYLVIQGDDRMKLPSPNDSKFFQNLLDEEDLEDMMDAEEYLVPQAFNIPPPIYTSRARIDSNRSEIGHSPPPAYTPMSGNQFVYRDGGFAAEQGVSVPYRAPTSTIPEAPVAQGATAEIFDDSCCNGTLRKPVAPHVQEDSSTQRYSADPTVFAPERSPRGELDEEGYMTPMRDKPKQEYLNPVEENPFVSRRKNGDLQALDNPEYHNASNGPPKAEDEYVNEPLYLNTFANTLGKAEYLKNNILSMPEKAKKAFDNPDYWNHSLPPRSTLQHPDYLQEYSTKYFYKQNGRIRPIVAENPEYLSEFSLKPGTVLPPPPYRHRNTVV

Ret-1 = biological target: T8, Ret-1 (Homo sapiens, UniProt P07949); assay: Kinase inhibition assay (33P transfer), Ret; settings: Table 6, Ret-1 kinase inhibition class
T8 construct: Kinases are expressed as either kinase domains or full length constructs; made in house

FGFR1 = biological target: T9, FGFR1 (Homo sapiens, UniProt P11362); assay: Kinase inhibition assay (33P transfer), FGFR1; settings: read-out: FGFR1-1
T9 construct: Kinases are expressed as either kinase domains or full length constructs; made in house

Lck = biological target: T10, Lck (Homo sapiens, UniProt P06239); assay: Kinase inhibition assay (33P transfer), Lck; settings: read-out: Lck-1
T10 construct: Kinases are expressed as either kinase domains or full length constructs; made in house
Outline: (§2)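 Filterless plate radiometric format: immobilized poly(Glu,Tyr) 4:1 or poly(Arg,Ser) 3:1, 33P-labelled ATP, tagged recombinant kinase (some with regulatory partners). Incorporated label counted after phosphoric acid wash.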

Zap-70 = biological target: T11, Zap-70 (Homo sapiens, UniProt P43403); assay: Kinase inhibition assay (33P transfer), Zap-70; settings: read-out: Zap-1
T11 construct: Kinases are expressed as either kinase domains or full length constructs; made in house
T11 sequence (P43403 1-619): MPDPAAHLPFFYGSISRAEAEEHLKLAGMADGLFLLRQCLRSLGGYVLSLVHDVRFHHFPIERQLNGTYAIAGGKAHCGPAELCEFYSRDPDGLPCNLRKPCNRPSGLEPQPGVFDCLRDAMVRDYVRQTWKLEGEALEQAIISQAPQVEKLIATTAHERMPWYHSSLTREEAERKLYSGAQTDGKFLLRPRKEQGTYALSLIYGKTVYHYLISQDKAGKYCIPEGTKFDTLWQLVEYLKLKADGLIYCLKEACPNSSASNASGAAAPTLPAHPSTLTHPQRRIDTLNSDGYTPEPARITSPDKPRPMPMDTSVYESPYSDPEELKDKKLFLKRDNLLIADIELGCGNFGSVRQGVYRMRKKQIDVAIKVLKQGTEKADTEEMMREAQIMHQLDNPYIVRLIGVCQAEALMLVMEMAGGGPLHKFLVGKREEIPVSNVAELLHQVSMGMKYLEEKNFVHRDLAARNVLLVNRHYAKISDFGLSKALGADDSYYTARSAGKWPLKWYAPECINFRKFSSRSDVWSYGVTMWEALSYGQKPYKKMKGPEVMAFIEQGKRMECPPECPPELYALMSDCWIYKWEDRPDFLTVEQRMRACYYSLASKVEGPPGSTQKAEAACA
Outline: as §2

Itk = biological target: T12, Itk (Homo sapiens, UniProt Q08881); assay: Kinase inhibition assay (33P transfer), Itk; settings: read-out: Itk-1
T12 construct: Kinases are expressed as either kinase domains or full length constructs; made in house
T12 sequence (Q08881 1-620): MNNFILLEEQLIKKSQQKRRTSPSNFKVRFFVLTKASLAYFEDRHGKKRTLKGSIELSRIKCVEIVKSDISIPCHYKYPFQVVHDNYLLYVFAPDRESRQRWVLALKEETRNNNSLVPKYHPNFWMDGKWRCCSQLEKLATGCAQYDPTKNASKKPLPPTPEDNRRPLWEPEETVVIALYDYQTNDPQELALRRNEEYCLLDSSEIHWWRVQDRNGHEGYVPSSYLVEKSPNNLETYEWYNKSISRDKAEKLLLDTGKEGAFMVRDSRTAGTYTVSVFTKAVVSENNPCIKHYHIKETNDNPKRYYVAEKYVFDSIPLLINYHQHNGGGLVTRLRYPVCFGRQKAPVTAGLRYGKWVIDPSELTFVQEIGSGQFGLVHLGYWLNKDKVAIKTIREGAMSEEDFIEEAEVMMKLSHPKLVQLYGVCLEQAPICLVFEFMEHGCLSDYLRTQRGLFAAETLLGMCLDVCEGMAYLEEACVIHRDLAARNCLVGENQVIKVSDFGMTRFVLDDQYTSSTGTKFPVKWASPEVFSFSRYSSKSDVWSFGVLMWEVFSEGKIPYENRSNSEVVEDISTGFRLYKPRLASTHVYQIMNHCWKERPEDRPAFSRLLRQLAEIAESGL
Outline: as §1

EGFR = biological target: T13, EGFR (Homo sapiens, UniProt P00533); assay: Kinase inhibition assay (33P transfer), EGFR; settings: Table 2, kinase inhibition class; read-out: EGFR-1
T13 construct: Kinases are expressed as either kinase domains or full length constructs; made in house
Outline: as §1

ErbB2 = biological target: T14, ErbB2 (Homo sapiens, UniProt P04626); assay: Kinase inhibition assay (33P transfer), ErbB2; settings: read-out: ErbB2-2
T14 construct: Kinases are expressed as either kinase domains or full length constructs; made in house
T14 sequence (P04626 23-1255, species assumed): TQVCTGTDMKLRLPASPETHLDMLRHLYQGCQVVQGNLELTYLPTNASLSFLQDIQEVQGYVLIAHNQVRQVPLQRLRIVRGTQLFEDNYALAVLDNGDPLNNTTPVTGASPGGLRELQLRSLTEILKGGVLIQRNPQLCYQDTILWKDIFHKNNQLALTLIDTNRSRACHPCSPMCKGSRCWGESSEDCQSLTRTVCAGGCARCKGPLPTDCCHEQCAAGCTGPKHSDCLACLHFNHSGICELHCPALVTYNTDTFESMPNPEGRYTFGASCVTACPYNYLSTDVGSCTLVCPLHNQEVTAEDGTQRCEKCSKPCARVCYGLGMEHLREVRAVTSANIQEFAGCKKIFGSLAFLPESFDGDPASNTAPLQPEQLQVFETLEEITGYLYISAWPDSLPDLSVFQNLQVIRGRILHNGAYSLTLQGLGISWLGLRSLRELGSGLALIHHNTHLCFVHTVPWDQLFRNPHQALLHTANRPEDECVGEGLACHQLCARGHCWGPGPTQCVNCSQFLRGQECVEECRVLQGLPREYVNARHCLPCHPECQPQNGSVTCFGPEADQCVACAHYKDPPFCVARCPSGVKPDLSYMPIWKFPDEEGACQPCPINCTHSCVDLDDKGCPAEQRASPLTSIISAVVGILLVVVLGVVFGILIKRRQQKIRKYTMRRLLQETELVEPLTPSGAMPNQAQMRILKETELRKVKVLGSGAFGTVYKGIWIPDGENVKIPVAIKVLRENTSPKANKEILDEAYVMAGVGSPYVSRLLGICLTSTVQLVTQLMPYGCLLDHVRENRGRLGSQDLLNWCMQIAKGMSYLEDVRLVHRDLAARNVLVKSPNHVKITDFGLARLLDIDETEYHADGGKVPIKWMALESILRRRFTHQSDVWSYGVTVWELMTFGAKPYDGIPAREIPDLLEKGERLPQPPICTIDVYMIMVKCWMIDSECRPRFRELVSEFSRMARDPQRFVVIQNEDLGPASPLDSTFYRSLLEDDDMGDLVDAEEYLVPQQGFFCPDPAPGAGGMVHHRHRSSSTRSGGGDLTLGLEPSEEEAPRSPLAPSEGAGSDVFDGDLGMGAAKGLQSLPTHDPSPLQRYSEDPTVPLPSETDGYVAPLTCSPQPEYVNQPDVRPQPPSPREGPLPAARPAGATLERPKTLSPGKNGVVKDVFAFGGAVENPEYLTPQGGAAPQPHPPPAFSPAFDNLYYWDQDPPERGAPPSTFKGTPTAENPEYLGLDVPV
Outline: as §1

Kdr = biological target: T15, Kdr (Homo sapiens, UniProt P35968); assay: Kinase inhibition assay (33P transfer), Kdr; settings: read-out: KDR-1
T15 construct: Kinases are expressed as either kinase domains or full length constructs; made in house
T15 sequence (P35968 20-1356, species assumed): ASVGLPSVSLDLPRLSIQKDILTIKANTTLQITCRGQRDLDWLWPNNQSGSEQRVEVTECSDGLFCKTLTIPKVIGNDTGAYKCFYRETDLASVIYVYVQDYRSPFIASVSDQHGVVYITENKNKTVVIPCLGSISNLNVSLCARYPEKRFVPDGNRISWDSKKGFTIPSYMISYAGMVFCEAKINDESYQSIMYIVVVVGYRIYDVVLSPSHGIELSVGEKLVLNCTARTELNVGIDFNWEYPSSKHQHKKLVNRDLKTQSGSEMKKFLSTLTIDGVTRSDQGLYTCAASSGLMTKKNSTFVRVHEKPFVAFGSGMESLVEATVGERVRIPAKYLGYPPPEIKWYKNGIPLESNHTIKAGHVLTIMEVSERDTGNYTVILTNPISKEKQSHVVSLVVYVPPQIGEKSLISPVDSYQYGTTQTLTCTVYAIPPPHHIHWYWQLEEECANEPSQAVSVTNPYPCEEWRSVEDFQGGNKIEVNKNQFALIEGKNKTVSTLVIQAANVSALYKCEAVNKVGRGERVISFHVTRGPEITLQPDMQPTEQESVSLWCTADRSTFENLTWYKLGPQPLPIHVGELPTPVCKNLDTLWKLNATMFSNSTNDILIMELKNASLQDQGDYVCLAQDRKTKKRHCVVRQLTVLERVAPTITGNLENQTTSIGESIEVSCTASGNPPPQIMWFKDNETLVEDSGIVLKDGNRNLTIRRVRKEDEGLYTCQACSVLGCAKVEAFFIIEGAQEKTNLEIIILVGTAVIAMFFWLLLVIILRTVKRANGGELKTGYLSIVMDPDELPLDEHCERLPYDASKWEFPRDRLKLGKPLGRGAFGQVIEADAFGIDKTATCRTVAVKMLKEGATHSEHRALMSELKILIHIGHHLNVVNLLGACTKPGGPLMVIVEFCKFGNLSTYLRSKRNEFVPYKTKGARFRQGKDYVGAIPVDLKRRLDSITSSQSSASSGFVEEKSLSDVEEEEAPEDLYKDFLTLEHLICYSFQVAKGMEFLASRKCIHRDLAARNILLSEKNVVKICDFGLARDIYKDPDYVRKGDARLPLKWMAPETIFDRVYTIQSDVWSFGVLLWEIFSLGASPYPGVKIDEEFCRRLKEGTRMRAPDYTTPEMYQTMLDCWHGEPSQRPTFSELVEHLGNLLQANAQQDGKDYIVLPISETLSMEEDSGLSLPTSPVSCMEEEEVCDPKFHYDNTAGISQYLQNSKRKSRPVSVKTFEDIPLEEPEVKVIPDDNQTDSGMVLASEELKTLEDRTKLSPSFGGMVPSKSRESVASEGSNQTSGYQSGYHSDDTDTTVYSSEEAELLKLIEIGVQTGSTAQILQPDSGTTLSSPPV
Outline: as §2

Tek = biological target: T16, Tek (Homo sapiens, UniProt Q02763); assay: Kinase inhibition assay (33P transfer), Tek; settings: read-out: Tek-1
T16 construct: Kinases are expressed as either kinase domains or full length constructs; made in house
Outline: as §1

c-Met = biological target: T17, c-Met (Homo sapiens, UniProt P08581); assay: Kinase inhibition assay (33P transfer), c-Met; settings: Table 2, kinase inhibition class; read-out: Met-1
T17 construct: Kinases are expressed as either kinase domains or full length constructs; made in house
Outline: as §1

AKT = biological target: T18, AKT (Homo sapiens, UniProt Q9Y243); assay: Kinase inhibition assay (33P transfer), AKT; settings: Table 2, kinase inhibition class; read-out: AKT3-1
T18 construct: Kinases are expressed as either kinase domains or full length constructs; made in house
Outline: as §2

IGFR-1 = biological target: T19, IGFR-1 (Homo sapiens, UniProt P08069); assay: Kinase inhibition assay, IGFR-1 (Table 2); settings: Table 2, kinase inhibition class
T19 construct: Kinases are expressed as either kinase domains or full length constructs; made in house

PDGFRB = biological target: T20, PDGFRB (Homo sapiens, UniProt P09619); assay: Kinase inhibition assay (33P transfer), PDGFRB; settings: read-out: PDGFRB-1
T20 construct: Kinases are expressed as either kinase domains or full length constructs; made in house
T20 sequence (P09619 33-1106, species assumed): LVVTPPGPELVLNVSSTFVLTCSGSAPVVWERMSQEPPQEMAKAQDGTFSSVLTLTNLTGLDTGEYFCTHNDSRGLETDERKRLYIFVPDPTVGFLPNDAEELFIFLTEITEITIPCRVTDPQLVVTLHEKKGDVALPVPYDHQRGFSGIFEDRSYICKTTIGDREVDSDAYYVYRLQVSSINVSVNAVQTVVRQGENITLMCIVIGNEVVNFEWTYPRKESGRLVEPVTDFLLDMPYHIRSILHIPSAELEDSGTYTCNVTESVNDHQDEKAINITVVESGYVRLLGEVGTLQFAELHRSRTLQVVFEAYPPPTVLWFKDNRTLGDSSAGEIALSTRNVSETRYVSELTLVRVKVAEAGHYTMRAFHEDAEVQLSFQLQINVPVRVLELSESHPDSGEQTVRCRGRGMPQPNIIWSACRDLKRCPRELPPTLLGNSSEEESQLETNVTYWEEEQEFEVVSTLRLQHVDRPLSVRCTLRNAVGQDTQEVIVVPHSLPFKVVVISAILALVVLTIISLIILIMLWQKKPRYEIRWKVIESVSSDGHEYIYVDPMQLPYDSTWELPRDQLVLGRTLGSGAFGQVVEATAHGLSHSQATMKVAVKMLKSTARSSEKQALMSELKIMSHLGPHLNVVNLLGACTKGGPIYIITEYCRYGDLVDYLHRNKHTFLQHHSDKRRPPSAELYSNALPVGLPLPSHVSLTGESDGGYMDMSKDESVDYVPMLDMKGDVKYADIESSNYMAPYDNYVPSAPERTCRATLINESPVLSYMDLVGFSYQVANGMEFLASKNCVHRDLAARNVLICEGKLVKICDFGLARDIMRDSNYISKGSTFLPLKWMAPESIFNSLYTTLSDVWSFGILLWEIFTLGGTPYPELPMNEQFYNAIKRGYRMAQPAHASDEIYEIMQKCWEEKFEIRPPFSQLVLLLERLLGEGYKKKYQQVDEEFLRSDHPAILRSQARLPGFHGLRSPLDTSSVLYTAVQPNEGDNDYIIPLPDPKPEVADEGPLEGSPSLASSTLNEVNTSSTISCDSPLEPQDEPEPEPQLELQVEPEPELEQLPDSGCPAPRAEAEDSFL

Row | Structure (SMILES) | IC50 (Lyn) [µM] | IC50 (Src) [µM] | IC50 (Fyn) [µM] | IC50 (Flt-1) [µM] | IC50 (EPHB4) [µM] | IC50 (Hck-1) [µM] | IC50 (ErbB4) [µM] | IC50 (Ret-1) [µM] | IC50 (FGFR1) [µM] | IC50 (Lck) [µM] | IC50 (Zap-70) [µM] | IC50 (Itk) [µM] | IC50 (EGFR) [µM] | IC50 (ErbB2) [µM] | IC50 (Kdr) [µM] | IC50 (Tek) [µM] | IC50 (c-Met) [µM] | IC50 (AKT) [µM] | IC50 (IGFR-1) [µM] | IC50 (PDGFRB) [µM]
1 | COc1cc(Nc2ncnc(-n3c(N)nc4cc(C(F)(F)F)ccc43)n2)cc(OC)c1OC [Compound 292] | 0.867 to 5.2 | 0.867 to 5.2 | 5.2 to 7.59 | 0.867 to 5.2 | 0.867 to 5.2 | > 9.75 | > 9.75 | 0.867 to 5.2 | 7.59 to 9.75 |  |  |  |  |  |  |  |  |  |  | 
2 | COc1cc(Nc2ncnc(-n3c(N)nc4cc([N+](=O)[O-])ccc43)n2)cc(OC)c1OC [Compound 294] | > 10.3 | > 10.3 | > 10.3 | > 10.3 | 0.912 to 5.47 | > 10.3 | > 10.3 | 0.912 to 5.47 | > 10.3 |  |  |  |  |  |  |  |  |  |  | 
3 | COc1cc(Nc2ncnc(-n3c(N)nc4cc(Cl)ccc43)n2)cc(OC)c1OC [Compound 296] | 0.935 to 5.61 | 0.935 to 5.61 | 5.61 to 8.18 | 0.935 to 5.61 | < 0.935 | > 10.5 | 8.18 to 10.5 | < 0.935 | 0.935 to 5.61 |  |  |  |  |  |  |  |  |  |  | 
4 | COc1cc(Nc2ncnc(N3c4ccccc4CC3C)n2)cc(OC)c1OC (stereo not shown) [Compound 610] | < 1.02 | 1.02 to 6.1 | 1.02 to 6.1 | < 1.02 |  | > 11.4 | 1.02 to 6.1 | < 1.02 | < 1.02 | < 1.02 | > 11.4 | 1.02 to 6.1 | 1.02 to 6.1 | 1.02 to 6.1 | < 1.02 | 6.1 to 8.9 | 1.02 to 6.1 | > 11.4 | 1.02 to 6.1 | < 1.02
5 | COc1cc(Nc2ncnc(Nc3ccc4c(cnn4Cc4ccccc4)c3)n2)cc(OC)c1OC [Compound 177] | < 0.827 | < 0.827 | < 0.827 | 0.827 to 4.96 |  | 0.827 to 4.96 | < 0.827 | < 0.827 | 4.96 to 7.24 | < 0.827 | 4.96 to 7.24 | 7.24 to 9.31 | < 0.827 | < 0.827 | 0.827 to 4.96 | 0.827 to 4.96 | 0.827 to 4.96 | 4.96 to 7.24 | 0.827 to 4.96 | < 0.827
6 | COc1cc(Nc2ncnc(-c3cccnc3NCc3ccc(F)cc3)n2)cc(OC)c1OC [Compound 1088] | > 9.73 | > 9.73 | > 9.73 | > 9.73 |  | > 9.73 | > 9.73 | < 0.865 | < 0.865 | 5.19 to 7.57 | > 9.73 | > 9.73 | > 9.73 | > 9.73 | < 0.865 | > 9.73 | > 9.73 | > 9.73 | > 9.73 | < 0.865
7 | CCN(CC)CCOc1ccc(Nc2ncnc(-n3c(N)nc4ccccc43)n2)cc1OC [Compound 652] | 0.892 to 5.35 | 0.892 to 5.35 | > 10 | 0.892 to 5.35 |  | > 10 | > 10 | < 0.892 | < 0.892 | < 0.892 | > 10 | 0.892 to 5.35 | > 10 | 5.35 to 7.8 | < 0.892 | 0.892 to 5.35 | 0.892 to 5.35 | > 10 | < 0.892 | 0.892 to 5.35
